Test results reported in patent US4413009A, “N-((Alkylamino)carbonyl)-N-(((alkylamino)carbonyl)oxy)acylamides with antineoplastic activity” (priority 1982, dated 1983).

test system: HeLa cells; test: HeLa cell colony cytotoxicity / growth inhibition test; assay type: cell-based, human; settings: 8 days, 0-50 μg/ml
Experimental: HeLa cells were seeded in 24-well tissue culture plates at a concentration of 30 cells per well in 1 ml of growth medium (Eagle's minimum essential medium with 5 percent HIFCS). The plates were incubated at 36° C. for 24 hours after which the growth medium was removed. The cells were resuspended in 1 ml of fresh growth medium described above together with a measured quantity of (0-50 μg/ml) of one of the compounds of this invention. The 0 μg/ml concentration served as a control. The tissue culture plates were then incubated at 36° C. for 8 days at which time the medium was removed and the cells were fixed and stained with 0.1% crystal violet in 20% ethanol. The HeLa cell colonies were counted macroscopically, and comparisons of colony size in treated and control wells were made. Test compounds were considered cytotoxic at concentrations which reduced the number of HeLa cell colonies compared to control by 50% or more. Test compounds of the invention were considered to cause HeLa cell growth inhibition at concentrations which reduced the size of colonies by a measurable amount when compared to control.

Compound	Cell Growth Inhibition: concentration at which the size of the HeLa colonies were reduced by a measurable amount (as compared to control)
CC(=O)N(OC(=O)NC(C)(C)C)C(=O)NC(C)(C)C [Example 3, N-(((1,1-dimethylethyl)amino)carbonyl)-N-((((1,1-dimethylethyl)amino)carbonyl)oxy)acetamide]	12.5 µg/mL
CCCCNC(=O)ON(C(C)=O)C(=O)NCCCC [Example 13, N-((Butylamino)carbonyl)-N-(((butylamino)carbonyl)oxy)acetamide]	3.1 µg/mL
CCCNC(=O)ON(C(C)=O)C(=O)NCCC [Example 9, N-((Propylamino)carbonyl)-N-(((propylamino)carbonyl)oxy)acetamide]	6.3 µg/mL
CC(C)(C)NC(=O)ON(C(=O)NC(C)(C)C)C(=O)c1ccccc1 [Example 19, N-(((1,1-Dimethylethyl)amino)carbonyl)-N-((((1,1-dimethylethyl)amino)carbonyl)oxy)benzamide]	50 µg/mL
CCNC(=O)ON(C(=O)NCC)C(=O)c1ccccc1 [Example 16, N-((Ethylamino)carbonyl)-N-(((ethylamino)-carbonyl)oxy)benzamide]	12.5 µg/mL
CNC(=O)ON(C(=O)NC)C(=O)C(C)(C)C [Example 6, N-((Methylamino)carbonyl)-N-(((methylamino)-carbonyl)oxy)(2,2-dimethyl)propionamide]	12.5 µg/mL
CC(=O)N(OC(=O)Nc1ccc(C)cc1)C(=O)Nc1ccc(C)cc1 [Example 12, N-(((4-Methylphenyl)amino)carbonyl)-N-((((4-methylphenyl)amino)carbonyl)oxy)acetamide]	12.5 µg/mL
CC(C)NC(=O)ON(C(=O)NC(C)C)C(=O)c1ccccc1 [Example 14, N-(((1-Methylethyl)amino)carbonyl)-N-((((1-methylethyl)amino)carbonyl)oxy)benzamide]	0.8 µg/mL
CNC(=O)ON(C(=O)NC)S(C)(=O)=O [Example 30, N-((Methylamino)carbonyl)-N-(((methyl-amino)carbonyl)oxy)methanesulfamide]	3.1 µg/mL
CC(C)NC(=O)ON(C(=O)NC(C)C)C(=O)C1CC1 [Example 25, N-(((1-Methylethyl)amino)carbonyl)-N-((((1-methylethyl)amino)carbonyl)oxy)cyclopropanecarboxamide]	3.1 µg/mL
CCC(=O)N(OC(=O)NC)C(=O)NC [Example 4, N-((methylamino)carbonyl)-N-(((methyl-amino)carbonyl)oxy)propionamide]	12.5 µg/mL
CCCCNC(=O)ON(C(=O)NCCCC)C(=O)C1CC1 [Example 26, N-((Butylamino)carbonyl)-N-(((butylamino)carbonyl)oxy)cyclopropanecarboxamide]	12.5 µg/mL
CC(=O)N(OC(=O)NC1CCCCC1)C(=O)NC1CCCCC1 [Example 7, N-((Cyclohexylamino)carbonyl)-N-(((cyclohexylamino)carbonyl)oxy)acetamide]	1.6 µg/mL
CCNC(=O)ON(C(C)=O)C(=O)NCC [Example 2, N-((Ethylamino)carbonyl)-N-(((ethylamino)-carbonyl)oxy)acetamide]	12.5 µg/mL
CCNC(=O)ON(C(=O)CC)C(=O)NCC [Example 5, N-((ethylamino)carbonyl)-N-(((ethylamino)-carbonyl)oxy)propionamide]	50 µg/mL
CCNC(=O)ON(C(=O)NCC)C(=O)C1CC1 [Example 24, N-((Ethylamino)carbonyl)-N-(((ethylamino)carbonyl)oxy)cyclopropanecarboxamide]	3.1 µg/mL
CCCCNC(=O)ON(C(=O)NCCCC)C(=O)c1ccccc1 [Example 18, N-((Butylamino)carbonyl)-N-(((butylamino)-carbonyl)oxy)benzamide]	0.8 µg/mL
O=C(Nc1ccccc1)ON(C(=O)Nc1ccccc1)C(=O)C1CC1 [Example 28, N-((Phenylamino)carbonyl)-N-(((phenylamino)carbonyl)oxy)cyclopropanecarboxamide]	50 µg/mL
CNC(=O)ON(C(=O)NC)C(=O)C1CC1 [Example 23, N-((Methylamino)carbonyl)-N-(((methylamino)carbonyl)oxy)cyclopropanecarboxamide]	12.5 µg/mL
O=C(Nc1ccccc1)ON(C(=O)Nc1ccccc1)C(=O)c1ccccc1 [Example 20, N-((Phenylamino)carbonyl)-N-(((phenyl-amino)carbonyl)oxy)benzamide]	50 µg/mL
CCNC(=O)ON(C(=O)NCC)S(C)(=O)=O [Example 31, N-((Ethylamino)carbonyl)-N-(((ethylamino)-carbonyl)oxy)-methanesulfamide]	3.1 µg/mL
CCCNC(=O)ON(C(=O)NCCC)C(=O)c1ccccc1 [Example 17, N-((Propylamino)carbonyl)-N-(((propylamino)-carbonyl)oxy)benzamide]	12.5 µg/mL
CC(=O)N(OC(=O)Nc1ccccc1)C(=O)Nc1ccccc1 [Example 10, N-((Phenylamino)carbonyl)-N-(((phenylamino)carbonyl)oxy)acetamide]	50 µg/mL
CC(=O)N(OC(=O)NC(C)C)C(=O)NC(C)C [Example 8, N-(((1-Methylethyl)amino)carbonyl)-N-((((1-methylethyl)amino)carbonyl)oxy)acetamide]	1.6 µg/mL
CCCNC(=O)ON(C(=O)NCCC)C(=O)C1CC1 [Example 22, N-((Propylamino)carbonyl)-N-(((propyl-amino)carbonyl)oxy)cyclopropanecarboxamide]	3.1 µg/mL
CNC(=O)ON(C(=O)NC)C(=O)c1ccccc1 [Example 15, N-((Methylamino)carbonyl)-N-(((methylamino)-carbonyl)oxy)benzamide]	3.1 µg/mL
O=C(NC1CCCCC1)ON(C(=O)NC1CCCCC1)C(=O)C1CC1 [Example 29, N-((Cyclohexylamino)carbonyl)-N-(((cyclohexylamino)carbonyl)oxy)cyclopropanecarboxamide]	12.5 µg/mL
CC(C)(C)NC(=O)ON(C(=O)NC(C)(C)C)C(=O)C1CC1 [Example 27, N-(((1,1-Dimethylethyl)amino)carbonyl)-N-((((1,1-dimethylethyl)amino)carbonyl)oxy)cyclopropanecarboxamide]	50 µg/mL
CC(=O)N(OC(=O)Nc1cccc(C)c1)C(=O)Nc1cccc(C)c1 [Example 11, N-(((3-methylphenyl)amino)carbonyl)-N-((((3-methylphenyl)amino)carbonyl)oxy)acetamide]	50 µg/mL
